The values below come from ChEMBL document CHEMBL1221167, “Small-molecule inhibition of siderophore biosynthesis in Mycobacterium tuberculosis and Yersinia pestis” (Nat Chem Biol, 2005).

The target of test [1] is T1, Pyochelin synthase PchD (Pseudomonas aeruginosa, UniProt Q9HWG3).
T1 sequence (Q9HWG3 whole entry): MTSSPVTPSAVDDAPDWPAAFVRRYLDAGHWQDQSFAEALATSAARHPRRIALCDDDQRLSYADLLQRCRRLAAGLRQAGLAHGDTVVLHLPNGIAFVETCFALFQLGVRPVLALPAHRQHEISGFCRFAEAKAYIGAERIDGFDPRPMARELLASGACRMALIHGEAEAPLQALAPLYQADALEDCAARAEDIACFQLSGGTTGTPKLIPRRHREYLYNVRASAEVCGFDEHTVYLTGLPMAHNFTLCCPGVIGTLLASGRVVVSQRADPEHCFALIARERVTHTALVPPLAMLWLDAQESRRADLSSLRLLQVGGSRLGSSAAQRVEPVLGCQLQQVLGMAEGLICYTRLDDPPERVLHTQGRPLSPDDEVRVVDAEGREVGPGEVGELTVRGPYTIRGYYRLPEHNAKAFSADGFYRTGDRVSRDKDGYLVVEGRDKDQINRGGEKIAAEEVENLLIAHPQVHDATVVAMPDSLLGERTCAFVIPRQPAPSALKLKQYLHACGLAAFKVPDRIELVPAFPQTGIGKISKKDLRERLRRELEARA
The test can be described thus: Inhibition of adenylation activity of Pseudomonas aeruginosa PchD after 15 mins by ATP-[32P]pyrophosphate exchange assay.

Test [2] deals with Mycobacterium tuberculosis. As to the kind of experiment: Inhibition of siderophore production in Mycobacterium tuberculosis H37Rv at 200 uM after 12 hrs by radiometric assay. The test is classed as functional, organism-based.
Test [3] relates to Mycobacterium tuberculosis. As to the kind of experiment: Antimicrobial activity against Mycobacterium tuberculosis H37Rv assessed as inhibition of bacterial growth in iron-supplemented medium after 8 days. As to conditions: 192 h. The test is classed as functional, organism-based.
Test [4] relates to Yersinia pestis. As to the kind of experiment: Antimicrobial activity against Yersinia pestis assessed as inhibition of bacterial growth in iron-supplemented medium after 22 hrs. In kind it is functional, organism-based.
The subject of test [5] is Mycobacterium tuberculosis. As to the kind of experiment: Antimicrobial activity against Mycobacterium tuberculosis H37Rv assessed as inhibition of bacterial growth in iron-deficient medium after 8 days. In kind it is functional, organism-based. The following applies: 192 h.
Test [6] relates to Yersinia pestis. The test can be described thus: Antimicrobial activity against Yersinia pestis assessed as inhibition of bacterial growth in iron-deficient medium after 22 hrs. In kind it is functional, organism-based.
Test [7] addresses T2, AMP-binding enzyme family protein (Yersinia pestis) (UniProt Q56950).
T2 sequence (whole entry): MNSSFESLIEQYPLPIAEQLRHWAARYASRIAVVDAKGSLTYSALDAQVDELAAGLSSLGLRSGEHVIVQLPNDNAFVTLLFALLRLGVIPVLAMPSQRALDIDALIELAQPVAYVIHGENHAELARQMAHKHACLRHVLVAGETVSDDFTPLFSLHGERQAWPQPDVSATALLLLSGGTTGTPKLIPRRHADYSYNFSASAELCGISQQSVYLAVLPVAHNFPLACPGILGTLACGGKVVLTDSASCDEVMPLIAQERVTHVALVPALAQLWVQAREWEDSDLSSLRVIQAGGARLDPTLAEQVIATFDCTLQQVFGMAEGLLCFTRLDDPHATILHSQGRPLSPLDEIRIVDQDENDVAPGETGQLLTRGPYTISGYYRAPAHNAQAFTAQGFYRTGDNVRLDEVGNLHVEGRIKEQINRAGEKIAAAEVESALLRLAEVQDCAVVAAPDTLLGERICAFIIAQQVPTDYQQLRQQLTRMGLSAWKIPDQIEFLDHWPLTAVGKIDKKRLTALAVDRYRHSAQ
The test can be described thus: Inhibition of His6-tagged Yersinia pestis YbtE-mediated [3H]salicyl-ypArCP-H6 formation up to 400 uM after 1.5 hrs by microplate counting.

Each structure is given as a SMILES string. Activity calls are given as the source filed them. The calls are words filed in the database; no cut-off is given here.

For the molecule `Nc1ncnc2c1ncn2[C@@H]1O[C@H](COS(=O)(=O)NC(=O)c2ccccc2O)[C@@H](O)[C@H]1O`, the IC50 was 0.0125 µM in test [1]; 39.9 µM in test [3]; more than 400 µM in test [4]; 2.2 µM in test [5]; 51.2 µM in test [6]. The inhibition result in test [2] was “Active”.
Turning to `Nc1ncnc2c1ncn2[C@@H]1O[C@H](COS(N)(=O)=O)[C@@H](O)[C@H]1O`, the inhibition entry in test [7] was “inactive”.
